# Read-outs that look alike come from different tables or passages of the source.
# Columns and labels:
# [1] = test system: Na^+-glucose co-transporters located in chorionic membrane of the intestine and the kidney; settings: cited from earlier work
# [2] = test system: renal tubular glucose reabsorption; settings: subcutaneous daily administration; cited from earlier work
# [3] = test system: db/db mice; assay: Fed plasma glucose after oral dosing of MX-6054 +/- T-1095 (Example 5); assay type: in vivo; settings: ± SEM
# Experimental: (§1) To examine the effect of T-1095 in combination with a RXR agonist, male db/db mice (7 weeks of age/Jackson Labs, ME) were treated daily for 11 days with vehicle (0.5% methylcellulose), an RXR agonist such as MX-6054 (0.1 mg/kg-10 mg/kg), T-1095 (100 mg/kg), or MX-6054 plus T-1095. Mice (n=8 animals/group) received the test compounds or vehicle by oral gavage in a volume of 10 ml/kg of body weight. Body weight was recorded on day 1, prior to dosing, and days 4, 8 and 11. Two hours after the final dose (day 11), mice were weighed and anesthetized with CO2/O2 (70:30). Mice were then bled by retro-orbital sinus puncture into 2 mL heparinized polypropylene tubes on ice. Livers were excised, weighed and frozen.
# (§2) Plasma samples were then assayed for glucose and triglycerides using Trinder reagent (Sigma Diagnostics) and GPO-Trinder (Sigma Diagnostics).
# [4] = test system: db/db mice; assay: Fed plasma triglycerides after oral dosing of MX-6054 +/- T-1095 (Example 5); assay type: in vivo; settings: ± SEM
# Experimental: as §1, §2
# [5] = Liver weight after oral dosing of MX-6054 +/- T-1095 (Example 5); assay type: in vivo; settings: db/db mice; for liver weight (title: Effects on body and liver weights): oral dosing (title: 35 day), in g (unit assumed)
# [6] = Body weight after oral dosing of MX-6054 +/- T-1095 (Example 5); assay type: in vivo; settings: oral dosing (title: 35 day), db/db mice
# Experimental: To examine the effect of T-1095 in combination with a RXR agonist, male db/db mice (7 weeks of age/Jackson Labs, […]), an RXR agonist such as MX-6054 (0.1 mg/kg-10 mg/kg), T-1095 (100 mg/kg), or MX-6054 plus T-1095. Mice (n=8 animals/group) received the test compounds or vehicle by oral gavage in a volume of 10 ml/kg of body weight. […] […] Mice were then bled by retro-orbital sinus puncture into 2 mL heparinized polypropylene tubes on ice. Livers were excised, weighed and frozen.
# [7] = test system: SGLT2 (SAAT1); settings: Kidney (S3), cited from earlier work; for Km: for D-glucose
# [8] = target: T1, SGLT1 (Homo sapiens, UniProt P13866); settings: Kidney (S1, S3), cited from earlier work; for Km: for D-glucose
# T1 sequence (P13866 1-664): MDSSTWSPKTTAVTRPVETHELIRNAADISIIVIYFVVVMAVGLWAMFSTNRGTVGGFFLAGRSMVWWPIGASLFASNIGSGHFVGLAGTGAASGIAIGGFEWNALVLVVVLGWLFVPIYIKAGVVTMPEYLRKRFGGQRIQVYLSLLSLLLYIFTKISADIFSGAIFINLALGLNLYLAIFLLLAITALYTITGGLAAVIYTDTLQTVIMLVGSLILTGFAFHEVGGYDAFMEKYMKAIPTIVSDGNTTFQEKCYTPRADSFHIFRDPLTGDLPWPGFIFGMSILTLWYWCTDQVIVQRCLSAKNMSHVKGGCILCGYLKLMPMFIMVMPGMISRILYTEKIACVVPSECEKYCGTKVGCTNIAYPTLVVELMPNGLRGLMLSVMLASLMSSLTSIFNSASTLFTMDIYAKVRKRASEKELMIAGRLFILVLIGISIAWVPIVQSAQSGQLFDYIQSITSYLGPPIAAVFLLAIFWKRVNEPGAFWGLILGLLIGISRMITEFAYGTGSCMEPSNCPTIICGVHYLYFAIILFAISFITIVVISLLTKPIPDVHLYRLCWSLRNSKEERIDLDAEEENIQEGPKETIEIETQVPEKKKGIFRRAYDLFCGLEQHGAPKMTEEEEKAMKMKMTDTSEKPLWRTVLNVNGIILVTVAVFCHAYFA
# [9] = target: T2, SGLT-2 in the kidney (Homo sapiens, UniProt P31639); settings: compared with T-1095; cited from earlier work
# T2 sequence (P31639 1-672): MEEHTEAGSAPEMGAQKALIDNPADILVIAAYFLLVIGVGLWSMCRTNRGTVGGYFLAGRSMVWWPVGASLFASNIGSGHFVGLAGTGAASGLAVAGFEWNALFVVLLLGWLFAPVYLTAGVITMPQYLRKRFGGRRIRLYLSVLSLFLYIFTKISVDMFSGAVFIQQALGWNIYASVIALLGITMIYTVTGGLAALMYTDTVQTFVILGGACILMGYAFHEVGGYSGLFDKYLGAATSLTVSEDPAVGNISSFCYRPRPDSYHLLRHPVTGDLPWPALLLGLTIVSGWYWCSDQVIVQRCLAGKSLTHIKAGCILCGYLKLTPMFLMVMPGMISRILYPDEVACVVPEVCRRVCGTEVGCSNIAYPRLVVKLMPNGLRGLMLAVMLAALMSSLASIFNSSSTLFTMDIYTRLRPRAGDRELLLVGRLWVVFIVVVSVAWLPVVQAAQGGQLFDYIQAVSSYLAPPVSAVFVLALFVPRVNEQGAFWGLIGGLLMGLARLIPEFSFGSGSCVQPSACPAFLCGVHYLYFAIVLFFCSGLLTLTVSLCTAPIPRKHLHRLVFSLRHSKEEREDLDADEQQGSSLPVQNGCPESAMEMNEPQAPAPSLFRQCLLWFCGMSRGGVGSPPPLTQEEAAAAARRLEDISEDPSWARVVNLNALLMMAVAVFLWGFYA
# [10] = test system: SGLT in the kidney; settings: cited from earlier work
# [11] = test system: diabetic rodent models (STZ-induced diabetic rat, yellow KK mice, db/db mice, Zucker Diabetic Fatty rats and GK rats); settings: cited from earlier work
# [12] = 0.1 mpk MX-6054, 11 day oral dosing
# [13] = 0.3 mpk MX-6054, 11 day oral dosing
# [14] = 1 mpk MX-6054, 11 day oral dosing
# [15] = 3 mpk MX-6054, 11 day oral dosing
# [16] = 10 mpk MX-6054, 11 day oral dosing
# [17] = 100 mpk T-1095, 11 day oral dosing
structure (smiles),measurement,setting,value
O=C(CCc1ccc(O)cc1)c1c(O)cc(O)cc1O[C@@H]1O[C@H](CO)[C@@H](O)[C@H](O)[C@H]1O [phlorizin],Na^+-glucose co-transporter activity,[1],inhibits
same,glucose level in a plasma,[2],controlled at a normal level for a long time
"Cc1cc2c(cc1-c1cc(/C=C3\SC(=O)NC3=O)ccc1OC(F)(F)F)C(C)(C)CCC2(C)C [MX-6054, 2,4-thiazolidinedione, 5-[[3-(5,6,7,8-tetrahydro-3,5,5,8,8-pentamethyl-2-naphthalenyl)-4-(trifluoromethoxy)phenyl]methylene]-, (5Z)-]",Glucose,[3]; [12],357 ± 46 mg/dL
same,Glucose,[3]; [13],342 ± 41 mg/dL
same,Glucose,[3]; [14],406 ± 57 mg/dL
same,Glucose,[3]; [15],255 ± 42 mg/dL
same,Glucose,[3]; [16],224 ± 13 mg/dL
same,Triglycerides,[4]; [12],260 ± 24 mg/dL
same,Triglycerides,[4]; [13],262 ± 25 mg/dL
same,Triglycerides,[4]; [14],259 ± 28 mg/dL
same,Triglycerides,[4]; [15],206 ± 24 mg/dL
same,Triglycerides,[4]; [16],189 ± 11 mg/dL
same,liver weight (title: Effects on body and liver weights),[5]; 0.1 mpk MX-6054,1.76 ± 0.11
same,liver weight (title: Effects on body and liver weights),[5]; 0.3 mpk MX-6054,1.93 ± 0.09
same,liver weight (title: Effects on body and liver weights),[5]; 1 mpk MX-6054,1.98 ± 0.09
same,liver weight (title: Effects on body and liver weights),[5]; 3 mpk MX-6054,1.89 ± 0.09
same,liver weight (title: Effects on body and liver weights),[5]; 10 mpk MX-6054,2.38 ± 0.16
same,"liver weight, effect of treatment in words",[5]; treatment with MX-6054,significant increase
same,body weight (title: Effects on body and liver weights),[6]; 0.1 mpk MX-6054,−0.7 ± 0.7
same,body weight (title: Effects on body and liver weights),[6]; 0.3 mpk MX-6054,0.2 ± 0.4
same,body weight (title: Effects on body and liver weights),[6]; 1 mpk MX-6054,0.6 ± 0.6
same,body weight (title: Effects on body and liver weights),[6]; 3 mpk MX-6054,−0.8 ± 1.3
same,body weight (title: Effects on body and liver weights),[6]; 10 mpk MX-6054,2.5 ± 1.1
O=C[C@H](O)[C@@H](O)[C@H](O)[C@H](O)CO [D-glucose],Km,[7]; read-out: Km In vivo,6000 µM
same,Km,[7]; read-out: Km in vitro,1640 µM
same,TmG in vitro (Maximal transport rate),[7],83 pmol/min/mm
same,Km,[8]; read-out: Km In vivo,300 µM
same,Km,[8]; read-out: Km in vitro,390 µM
same,TmG in vitro (Maximal transport rate),[8],7.9 pmol/min/mm
Cc1cc(O)c(C(=O)CCc2ccc3occc3c2)c(OC2OC(CO)C(O)C(O)C2O)c1 (centres unmarked) [T-1095A],substrate for the inhibition of SGLT-2 in the kidney,[9],better substrate
same,inhibition of SGLT in the kidney,[10],selective and potent inhibitor
COC(=O)OCC1OC(Oc2cc(C)cc(O)c2C(=O)CCc2ccc3occc3c2)C(O)C(O)C1O (centres unmarked) [T-1095],Glucose,[3]; [17],201 ± 9 mg/dL
same,"adding weight, infection in the urinary tracts, electrolyte imbalance in plasma, changes in food intake, acute hypoglycemic shock, pathological changes in the kidney",[11]; during treatment with T-1095,no observed sign
same,oral glucose tolerance test and hyperinsulinemic euglycemic clamp studies,"[11]; in vivo, po",improvement of glucose tolerance and the reduction of insulin resistance
same,elevated blood glucose levels,"[11]; oral administration, rodent models of IDDM and NIDDM",suppress elevated blood glucose levels
same,fed and fasting blood glucose levels and HbA1c,"[11]; treatment for 3 weeks to 6 months, diabetic rodent models",reduced
same,"hyperinsulinemia, hypertriglyceridemia, and the development of microalbuminuria",[11]; yellow KK mice and other diabetic mice models,decrease
same,Triglycerides,[4]; [17],196 ± 11 mg/dL
same,liver weight (title: Effects on body and liver weights),[5]; 100 mpk T-1095,1.64 ± 0.07
same,MX-6054-induced increase in liver weight,[5]; co-administration of T-1095 with MX-6054,prevented
same,body weight (title: Effects on body and liver weights),[6]; 100 mpk T-1095,0.7 ± 0.3

# Source: patent publication US8183213B2, “Combination therapy comprising glucose reabsorption inhibitors and retinoid-X receptor modulators” (Ortho McNeil Pharmaceutical, Inc., priority 2001, dated 2012)
